Measured values from ChEMBL document CHEMBL1123898, “Antitumor imidazotetrazines. 14. Synthesis and antitumor activity of 6- and 8-substituted imidazo[5,1-d]-1,2,3,5-tetrazinones and 8-substituted pyrazolo[5,1-d]-1,2,3,5-tetrazinones” (1987).

Legend:
Format in all cases: functional
[1] = Antitumor activity was assessed against TLX5 tumors in CBA/CA mouse by inoculation of 2 x 10e5 tumor cells through sc route and number of Survivors to duration was reported at 320 mg/kg iv dose; 1/5
L1210 [2] = experiment: Antitumor activity was assessed against L1210 tumors in B6D2F1 mouse by inoculation of 10e5 tumor cells through intraperitoneal route and mean death of animals (treated/control) was reported at 100 mg/kg peroral dose; conditions: route oral
L1210 [3] = experiment: Antitumor activity was assessed against L1210 tumors in B6D2F1 mouse by inoculation of 10e5 tumor cells through intraperitoneal route and mean death of animals (treated/control) was reported at 50 mg/kg peroral dose; conditions: route oral
L1210 [4] = experiment: Antitumor activity was assessed against L1210 tumors in B6D2F1 mouse by inoculation of 10e5 tumor cells through intraperitoneal route and mean death of animals (treated/control) was reported at 200 mg/kg peroral dose; conditions: route oral
[5] = Antitumor activity was assessed against TLX5 tumors in CBA/CA mouse by inoculation of 2 x 10e5 tumor cells through subcutaneous route and mean death of animals (treated/control) was reported at 640 mg/kg iv dose
[6] = Antitumor activity was assessed against TLX5 tumors in CBA/CA mouse by inoculation of 2 x 10e5 tumor cells through subcutaneous route and mean death of animals (treated/control) was reported at 320 mg/kg iv dose
[7] = Antitumor activity was assessed against TLX5 tumors in CBA/CA mouse by inoculation of 2 x 10e5 tumor cells through subcutaneous route and mean death of animals (treated/control) was reported at 40 mg/kg iv dose
[8] = Antitumor activity was assessed against TLX5 tumors in CBA/CA mouse by inoculation of 2 x 10e5 tumor cells through subcutaneous route and mean death of animals (treated/control) was reported at 80 mg/kg iv dose
[9] = Antitumor activity was assessed against TLX5 tumors in CBA/CA mouse by inoculation of 2 x 10e5 tumor cells through subcutaneous route and mean death of animals (treated/control) was reported at 160 mg/kg iv dose

Q: For `O=C(c1ncn2c(=O)n(CCCl)nnc12)N1CCCCC1`, which Survivors [1] is on record?
A: 1

Q: What about the T/C (L1210 [2]) of the same compound?
A: 108%

Q: What about the T/C (L1210 [3]) of the same compound?
A: 100%

Q: And the T/C (L1210 [4])?
A: 171%

Q: And the T/C [5]?
A: 25%

Q: And the T/C [6]?
A: >234%

Q: And the T/C [7]?
A: 98%

Q: What about the T/C [8] of the same compound?
A: 102%

Q: What about the T/C [9] of the same compound?
A: 120%
